Drawing on ChEMBL document CHEMBL3120118, “Evaluation of 1,2,5-thiadiazoles as modulators of M₁/M₅ muscarinic receptor subtypes” (Bioorg Med Chem, 2014), this text covers Activity, inhibition and solubility for 8 molecules.

For data set [1], the target named is T1, Muscarinic acetylcholine receptor M5 (Homo sapiens) (UniProt P08912).
T1 sequence (whole entry): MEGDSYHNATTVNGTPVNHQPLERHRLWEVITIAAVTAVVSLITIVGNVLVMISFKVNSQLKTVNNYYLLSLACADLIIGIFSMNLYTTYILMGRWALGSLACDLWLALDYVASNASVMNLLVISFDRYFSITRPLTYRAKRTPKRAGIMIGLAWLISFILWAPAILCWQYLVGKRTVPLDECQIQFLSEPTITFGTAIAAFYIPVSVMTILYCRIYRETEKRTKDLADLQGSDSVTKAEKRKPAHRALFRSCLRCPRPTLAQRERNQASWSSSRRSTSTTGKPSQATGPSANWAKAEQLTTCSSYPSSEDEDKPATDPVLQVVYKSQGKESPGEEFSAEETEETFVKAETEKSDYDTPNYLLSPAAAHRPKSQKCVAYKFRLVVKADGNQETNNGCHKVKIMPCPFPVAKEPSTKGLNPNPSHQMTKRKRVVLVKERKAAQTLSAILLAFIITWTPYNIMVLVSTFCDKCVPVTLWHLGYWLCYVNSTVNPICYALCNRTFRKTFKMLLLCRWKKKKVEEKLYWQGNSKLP
The data set is described as follows: Stimulation of human muscarinic M5 receptor expressed in mouse A9 L cells at 1 to 100 uM after 1 hr by topcount analysis. The format is cell-based. Conditions: A9L.

In data set [2] the target is T2, Muscarinic acetylcholine receptor M1 (Homo sapiens) (UniProt P11229).
T2 sequence (whole entry): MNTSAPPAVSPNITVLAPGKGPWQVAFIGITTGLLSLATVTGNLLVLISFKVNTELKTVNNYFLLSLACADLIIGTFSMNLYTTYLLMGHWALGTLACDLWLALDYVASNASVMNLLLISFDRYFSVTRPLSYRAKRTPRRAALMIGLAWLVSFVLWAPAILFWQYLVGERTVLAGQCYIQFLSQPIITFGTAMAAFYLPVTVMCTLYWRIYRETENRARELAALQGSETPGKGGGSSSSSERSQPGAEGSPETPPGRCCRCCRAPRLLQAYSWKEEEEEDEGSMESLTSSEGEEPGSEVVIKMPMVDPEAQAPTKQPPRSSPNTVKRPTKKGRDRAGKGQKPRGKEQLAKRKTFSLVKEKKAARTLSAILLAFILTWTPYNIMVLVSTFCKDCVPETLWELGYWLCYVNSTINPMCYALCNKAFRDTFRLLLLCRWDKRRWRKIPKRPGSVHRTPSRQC
Nature of the data set: Modulation of human muscarinic M1 receptor expressed in mouse A9 L cells assessed as effect on carbachol-induced phosphoinositide metabolism at 1 to 100 uM after 1 hr by topcount analysis. The format is cell-based. Conditions: A9L.

The target in data set [3] is T1, Muscarinic acetylcholine receptor M5 (Homo sapiens). Nature of the data set: Modulation of human muscarinic M5 receptor expressed in mouse A9 L cells assessed as effect on carbachol-induced phosphoinositide metabolism at 1 to 100 uM after 1 hr by topcount analysis. It is filed as cell-based. Conditions: A9L.
In data set [4] the target is T2, Muscarinic acetylcholine receptor M1 (Homo sapiens). The data set is described as follows: Stimulation of human muscarinic M1 receptor expressed in mouse A9 L cells at 1 to 100 uM after 1 hr by topcount analysis. The note with it: A9L. The format is cell-based.
Data set [5] addresses T1, Muscarinic acetylcholine receptor M5 (Homo sapiens). Nature of the data set: Modulation of human muscarinic M5 receptor expressed in mouse A9 L cells assessed as competitive inhibition of carbachol-induced phosphoinositide metabolism by Schild plot analysis. It is filed as cell-based. The note with it: A9L.
Data set [6] concerns the target T2, Muscarinic acetylcholine receptor M1 (Homo sapiens). Nature of the data set: Modulation of human muscarinic M1 receptor expressed in mouse A9 L cells assessed as effect on carbachol-induced phosphoinositide metabolism at 1 uM by Schild plot analysis. The format is cell-based. The note with it: A9L.
Data set [7] has as its target T1, Muscarinic acetylcholine receptor M5 (Homo sapiens). The data set is described as follows: Modulation of human muscarinic M5 receptor expressed in mouse A9 L cells assessed as inhibition of carbachol-induced phosphoinositide metabolism at 1 to 100 uM after 1 hr by topcount analysis. It is filed as cell-based. Conditions: A9L.
In data set [8] the target is T2, Muscarinic acetylcholine receptor M1 (Homo sapiens). The data set is described as follows: Modulation of human muscarinic M1 receptor expressed in mouse A9 L cells assessed as effect on carbachol-induced phosphoinositide metabolism at 10 to 300 uM by Schild plot analysis. The format is cell-based. The note with it: A9L.
Data set [9] is described as follows: Solubility of the compound in 50% DMSO. It is filed as physicochemical.
For data set [10], the target named is T2, Muscarinic acetylcholine receptor M1 (Homo sapiens). The data set is described as follows: Modulation of human muscarinic M1 receptor expressed in mouse A9 L cells assessed as inhibition of carbachol-induced phosphoinositide metabolism at 100 uM after 1 hr by topcount analysis. It is filed as cell-based. The note with it: A9L.
For data set [11], the target named is T1, Muscarinic acetylcholine receptor M5 (Homo sapiens). Nature of the data set: Modulation of human muscarinic M5 receptor expressed in mouse A9 L cells assessed as inhibition of carbachol-induced phosphoinositide metabolism at 100 uM after 1 hr by topcount analysis. The format is cell-based. The note with it: A9L.

Calls of active or inactive are those of the source. The calls are words filed in the database; no cut-off is given here.

Regarding `COc1nsnc1OCCO`, the result in [1], in [2], in data set [3] and in [4] was inactive.

Turning to `COc1nsnc1OCCN(C)C`, the result in data set [1], in [2], in data set [4] and in data set [6] was inactive. Besides, in [5], the inhibition result was “Dose-dependent effect”. Further, in data set [7], the inhibition result is “Active”. In addition, the result in [8] was Active.

For the molecule `COc1nsnc1OCCOCCOCCO`, the outcome in data set [1], in data set [2], in [3] and in [4] was inactive.

`COc1nsnc1OCCOCCOCCOCCOc1nsnc1OC`: the solubility result in data set [9] was “Insoluble”.

Turning to `COc1nsnc1OCCOCCOCc1ccccc1`, the solubility result in [9] was “Insoluble”.

On to `COc1nsnc1OCCOCCOCCOCCO`, for which the result in data set [1], in data set [2], in [3] and in data set [4] was inactive.

For `COc1nsnc1OCC[N+](C)(C)C`, the outcome in data set [1] and in data set [4] was inactive. The inhibition entry in [10] and in data set [11] was “Active” throughout.

For the molecule `COc1nsnc1OCCOCCOCCOc1nsnc1OC`, the solubility entry in data set [9] is “Insoluble”.
